Measurements as given in patent US20260325504A1, “Genetically Engineered Human Pituitary Corticotroph Tumor Organoids Exhibit Divergent Responses to Selective Glucocorticoid Receptor Modulators” (Corcept Therapeutics Incorporated, priority 2022, published 2026).

What was measured:
SSTR5 = test: Spectral flow cytometry, SSTR5 positive cells, iPSCUSP48MV organoids; format: cell-based, human; conditions: 48 h, FIGS. 8B, F
Description: Sonic Hedgehog (SHH) was withdrawn from the organoid growth media 16 hours prior to treatment. The experimental treatment groups included: vehicle (Veh), mifepristone (500 nM, Selleckchem S2606), GANT61 (5 μM, Stemcell Technologies 73692), ketoconazole (Keto, 10 μM, Selleckchem S1353), pasireotide (Pas, 100 nM, Target Mol TP2207-SB001), octreotide (Oct, 100 nM, Selleckchem P1017), mifepristone plus GANT61, mifepristone plus Keto, mifepristone plus Pas, relacorilant (500 nM, Corcept Therapeutics CORT125134), relacorilant plus Pas, relacorilant plus Oct, or dexamethasone (Dexa, 100 nM, SIGMA S4902). In the combination treatments, cultures were pretreated with the GANT61, Keto, Pas or Oct for 2 hours prior to treatment with mifepristone or Rela. PitNET tissue derived organoids hPITO36, hPITO37, hPITO38, hPITO39, and hPITO40 were treated with the following experimental conditions: Vehicle (1), pasireotide (2), relacorilant (3), relacorilant & pasireotide (4), mifepristone (5), mifepristone & pasireotide (6). The IC50 values used for each hPITO line for each drug were determined based on dose responses (FIG. 12). All organoid cultures were treated for 48 hours prior to analysis.
The multicolor flow cytometry antibody panel was designed using the Cytek® Full Spectrum Viewer online tool to calculate the similarity index. Organoids were harvested in cold Serum-Free Defined Medium media and incubated with Zombie (BioLegend 423107, 1:100) for 15 minutes in the dark at room temperature, followed by incubation with fluorochrome-conjugated/unconjugated primary surface or cytoplasmic antibodies (Table 6) at 4° C. for 30 minutes. Cells were then washed with Cell Staining Buffer (BioLegend 420-201) and incubated at 4° C. for 30 minutes with secondary antibodies (Table 6). Cells were fixed using Cytofix/Cytoperm™ Fixation/Permeabilization Solution (BD Biosciences 554714) and washed with Fixation/Permeabilization wash buffer according to the recommended protocol. […] Data was acquired using the Cytek® Aurora, analyzed using Cytobank Premium software (Beckman Coulter).

SSTR2 = test: Spectral flow cytometry, SSTR2 positive cells, hPITOs; format: cell-based, human; conditions: hPITO, 48 h, FIGS. 9E, F
Source text: 1.3 Generation and Culture of Human PitNET Tissue Organoids (hPITOs)
Patients undergoing planned transsphenoidal surgery for PitNETs were identified in the outpatient neuroendocrinology and neurosurgery clinics and collected by the St. Joseph's Hospital and Barrow Neurological Institute Biobank under the collection protocol PHXA-05TS038, and outcomes data protocol PHXA-0004-72-29 with approval of the Institutional Review Board (IRB) and patient consent. De-identified samples were shipped in collection and transport media (Table 3) to the Zavros laboratory (University of Arizona) for processing within 24 hours of collection. Resected PitNET tissues were washed with Dulbeccos Phosphate Buffered Saline (DPBS) supplemented with 1× Penicillin/Streptomycin, 1× Kanamycin and 1× Amphotericin/Gentamycin, minced into smaller pieces, and incubated with digestion buffer (Dulbecco's Modified Eagle Medium/Nutrient Mixture F-12 (DMEM/F12) supplemented with 0.4% Collagenase 2, 0.1% Hyaluronic Acid, 0.03% Trypsin). The tissue was incubated with Accutase (Thermo Fisher Scientific) for a further 5 minutes, and the cells were pelleted and washed with DPBS supplemented with antibiotics. Dissociated cells were then seeded as Matrigel™ domes in culture dishes and overlaid with growth media (Table 4). Media was replaced every 3 days and organoids were harvested for downstream experiments or passaged after 15 days of culture (FIG. 1B).
Sonic Hedgehog (SHH) was withdrawn from the organoid growth media 16 hours prior to treatment. […] The IC50 values used for each hPITO line for each drug were determined based on dose responses (FIG. 12). […]

Row | Compound | percentage of SSTR5 positive cells (SSTR5) | magnitude of SSTR2 induction, mifepristone vs relacorilant (SSTR2) | percentage of SSTR2 positive cells (SSTR2) | magnitude of SSTR5 induction, relacorilant vs mifepristone (SSTR5)
1 | CC#C[C@]1(O)CC[C@H]2[C@@H]3CCC4=CC(=O)CCC4=C3[C@@H](c3ccc(N(C)C)cc3)C[C@@]21C [mifepristone, 11β-(4-dimethylaminophenyl)-17ß-hydroxy-17α-(1-propynyl)-estra-4,9-dien-3-one] | significant increase | significantly greater than that of relacorilant | significant increase | 
2 | Cn1cc(S(=O)(=O)N2CCC3=Cc4c(cnn4-c4ccc(F)cc4)C[C@]3(C(=O)c3cc(C(F)(F)F)ccn3)C2)cn1 [relacorilant, (R)-(1-(4-fluorophenyl)-6-((1-methyl-1H-pyrazol-4-yl)sulfonyl)-4,4a,5,6,7,8-hexahydro-1H-pyrazolo[3,4-g]isoquinolin-4a-yl) (4-(trifluoromethyl)pyridin-2-yl) methanone] | significant increase |  | significant increase | significantly greater than that of mifepristone
